Laboratory results: publication PMC8587750, “Structural Optimization and Biological Activity of Pyrazole Derivatives: Virtual Computational Analysis, Recovery Assay and 3D Culture Model as Potential Predictive Tools of Effectiveness against Trypanosoma cruzi” (Molecules, 2021)
Where two headings read alike, the source gives them in different places.

Legend:
[1] = tested on: T. cruzi (Dm28c-Luc) in Vero cells; assay: Reversibility (washout) assay, parasite recrudescence in infected Vero cells; format: cell-based, Trypanosoma cruzi; details: for decrease of parasite load compared to untreated infected Vero cell cultures: 72 h treatment at IC90, washout, 72 h without drug
Method: To address the question of whether the treatment with 3g, 3j, and 3m leads to parasite clearance, an intracellular T. cruzi washout assay was performed as a strategy for monitoring the parasite recrudescence. In this approach, cultures of infected Vero cells (Dm28c-Luc) were treated for 72 h at IC90 and 50 µM (2 to 5-fold de IC90) concentrations of the promising compounds 3g, 3j, and 3m and, after washing the cell monolayers, the cultures were kept for another 72 h without drug treatment. Both cell monolayers and their supernatants were evaluated for the presence of viable parasites after luciferin addition. All derivatives analyzed relapsed at the IC90 concentration (Figure 3). However, treatment with 3g, 3j, and 3m led to a significant reduction in the parasite load, reaching a decrease of 4.5-, 1.9-, and 8.7-fold, respectively, when compared to untreated infected Vero cells cultures (Figure 3). The emergence of trypomastigotes in the supernatant, at IC90 concentration, was observed three days after removal of drug pressure, but with a significant reduction in viable parasites compared to untreated cultures (Figure 3). Parasite recrudescence was not seen in 100 µM Bz treatment (Figure 3).
The washout assay, adapted from, was performed to evaluate the promising compounds efficacy. […] After successive washing, the cultures were maintained for an additional 72 h at 37 °C in RPMI 1640 medium supplemented with 10% SFB in the absence of the compound. Luciferin (300 µg/mL) was added separately to the culture supernatant, previously removed, and the cell monolayer. The luminescent signal was read on the Glomax-Multi Detection reader (Promega Corporation, Madison, WI, USA). Bz (100 µM) and DMSO (≤1%) were used as positive and negative reaction controls, respectively.

[2] = Cytotoxicity in vitro assay (ATP, CellTiter Glo, 72 h); format: cell-based; details: African green monkey, Vero cells
Method: Vero cells, obtained from the Rio de Janeiro Cell Bank (BCRJ code 0245), were cultured in RPMI-1640 supplemented with 10% fetal bovine serum (FBS) and 1 mM L-glutamine, as previously described. Vero cells were used for drug screening assays and to obtain trypomastigote forms of T. cruzi.
Vero cells were used as a cellular model to analyze the toxic effect of pyrazole derivatives, series 1(a–l), 2(a–l), 3(a–n), 4(a–c), and 5(a–c), and Benznidazole (Bz) on mammalian cells. Briefly, the cells, plated on 96-well white opaque microplate (1.5 × 10^4 cells/well), were treated for 72 h at 37 °C with a wide range concentration (500–1.95 µM) of the pyrazole derivatives. The cell viability was determined by measuring ATP levels using the CellTiter Glo Kit (Promega Corporation, Madison, WI, EUA) followed by reading the luminescent signal on the Glomax-Multi Detection plate reader (Promega Corporation, Madison, WI, EUA)). All treatments and controls were performed at a low concentration of DMSO (≤1%). The 50% cytotoxic concentration values (CC50; the concentration of the compound that reduces 50% of the cell viability) were estimated by linear regression analysis. Three independent assays were performed in duplicate.

[3] = tested on: intracellular parasites in T. cruzi-infected microtissue; assay: 3D-microtissue-based phenotypic screening (T. cruzi-infected Vero spheroids); format: cell-based, Trypanosoma cruzi; details: 72 h treatment; Bz 100 µM
Method: Vero cells were seeded at a density of 2 × 10^5 cells/well in a 96-well U-bottom plate previously coated with agarose (1%). The 3D cultures, adapted from, were cultivated for 4 days in RPMI 1640 medium supplemented with 10% FBS and L-glutamine for complete 3D microtissue formation. The 3D culture model was used as a tool to evaluate the effectiveness of promising derivatives in eliminating intracellular parasites in the microtissue.
The 3D-microtissue-based phenotypic screening was performed with the promising pyrazole derivatives. […] At the end of the treatment, the 3D cultures supernatants were removed, and luciferin (300 μg/mL) was added to the spheroids. The luminescent signal was read on the Glomax-Multi Detection reader (Promega Corporation, Madison, WI, USA). Bz (100 µM) and DMSO (≤1%) were used as positive and negative control, respectively. The IC50 value was calculated by linear regression. At least three independent assays were performed in quadruplicate.

[4] = tested on: intracellular amastigotes of T. cruzi; assay: Activity against intracellular amastigotes in infected Vero cells (Dm28c-Luc, 72 h); format: cell-based, Trypanosoma cruzi; details: for Intracellular Amastigotes SI: CC50 of Vero cells/IC50 of intracellular amastigote; for IC90: read-out: Trypanocidal Activity Intracellular Amastigotes IC90
Source text: (§1) T. cruzi Dm28c clone genetically modified to express luciferase, kindly provided by Dr. Cristina Henriques from Oswaldo Cruz Institute–Fiocruz, was used in the drug assays. Trypomastigotes were harvested from T. cruzi-infected Vero cultures supernatants at 4th days post-infection (dpi) and used in the phenotypic screening assay. For intracellular amastigotes assays, Vero cells (2D and 3D cultures) were infected at a ratio of 10:1 parasites/host cells.
The effect of the pyrazole derivatives against intracellular amastigotes was also evaluated after 72 h treatment (37 °C) with compound concentrations ranging from 0.04–100 µM [13]. Parasite viability, measured by luminescent signal, was determined after luciferin (300 µg/mL) addition. IC50 and IC90 values were calculated by linear regression. Selectivity index (SI) was calculated as the ratio of the CC50 to IC50 values. The non-toxic concentration of DMSO (less than 1% v/v) was used in all assays. A minimum of three independent assays was carried out in duplicate.

[5] = tested on: trypomastigote forms of T. cruzi; assay: Phenotypic screening against T. cruzi trypomastigotes (Dm28c-Luc, luciferase viability, 24 h); format: cell-based, Trypanosoma cruzi; details: for Trypomastigotes SI: CC50 of Vero cells/IC50 of trypomastigote; for IC50 / IC90: Trypanosoma cruzi, Dm28c-Luc, 24 h; for IC50: read-out: Trypanocidal Activity Trypomastigotes IC50; for IC90: read-out: Trypanocidal Activity Trypomastigotes IC90
Source text: as §1
The phenotypic compound screening was performed using transgenic T. cruzi parasites expressing the firefly luciferase (Dm28c-Luc). Trypomastigotes (1 × 10^6 parasites/well) were treated for 24 h at 37 °C with the pyrazole derivatives and Bz (0.04–100 μM), followed by incubation with luciferin substrate (300 µg/mL) to determine parasite viability through luciferase activity. The concentration that reduces the number of viable parasites by 50% (IC50) or 90% (IC90) was calculated by linear regression. The luminescent signal was read on a Glomax-Multi Detection plate reader (Promega Corporation, Madison, WI, EUA)). At least three independent assays were performed in duplicate.

[6] = tested on: T. cruzi cysteine protease; assay: Cysteine protease activity of trypomastigote total protein extracts (Z-FR-AMC); format: biochemical, Trypanosoma cruzi; details: for maximum inhibition of cysteine protease enzymatic activity: 300 µM, Z-FR-AMC 60 µM, pH 5.0, 37 °C
Method: Total protein extract from trypomastigotes (Dm28c-Luc; 10^8 parasites/mL) were extracted with lysis buffer. Cysteine protease activity of extracts (5 μg) was measured in acetate buffer using fluorogenic peptide substrate (60 μM of 7-Amino-4-Methylcoumarin hydrochloride, CBZ-L-Phenylalanyl-L-Arginine amide (Z-FR-AMC). Total protein extracts were incubated for 45 min at room temperature with the compounds and changes in relative fluorescence units monitored using a SpectraMaxM2e spectrophotometer (Molecular Devices, Sunnyvale, CA, USA) for 1 h with excitation at 370 nm and emission at 460 nm. The inhibition assays were performed by coincubation with different compounds (3g, 3j, and 3m) and concentrations (300–11.11 µM) and transepoxysuccinyl-L-leucylamido-(4-guanidino) butane (E-64). Additional control was carried out with DMSO (≤1%). Enzymatic activity was expressed in µmol/min/mg of protein and the residual activity in percentage.
Figure 6 Inhibition of T. cruzi cysteine protease activity. Total protein extracts of trypomastigotes (5 µg), was incubated at different concentrations (300–11.11 µM) of compounds E64 (black circle), 3g (black triangle), 3j (black square) and 3m (white circle) in enzyme activation buffer pH 5.0, at 37 °C. Enzyme activity was measured using a specific fluorogenic peptide substrate Z-FR-AMC (60 µM). Results are presented as percentage of inhibition of enzyme activity (%) and represent the mean and standard deviation (±) of three independent experiments.

[7] = Trypanosoma cruzi, Vero, negative log of the IC50 value in molar, read-out: Intracellular Amastigotes pIC50 (converted)
[8] = Trypanosoma cruzi, Vero cells infected with Dm28c-Luc, 72 h
[9] = Trypanosoma cruzi, Vero, 72 h, Vero cells infected with Dm28c-Luc, 72 h, read-out: Trypanocidal Activity Intracellular Amastigotes IC50

O=C(Cn1ccnc1[N+](=O)[O-])NCc1ccccc1 [Bz, benznidazole, reference compound]
parasite recrudescence ([1]; 100 µM, 72 h after washout): not seen | CC50 at 72 h [2]: > 500 µM | viability of intracellular parasites in microtissue, luminescence intensity (ALU) [3]: 18,858 ± 3726 ALU | Intracellular Amastigotes SI [4]: >107 | IC50 [4, 7]: 4.68 µM | IC50 ([4]; Trypanosoma cruzi, Vero cells infected with Dm28c-Luc, 72 h, read-out: Trypanocidal Activity Intracellular Amastigotes IC50): 4.67 ± 0.22 µM | IC90 [4, 8]: > 100 µM | Trypomastigotes SI [5]: >26.7 | IC50 [5]: 18.7 ± 4.58 µM | IC90 [5]: > 100 µM

Clc1ccc(-n2cc(C3=NCCN3)cn2)cc1 [Compound 3g, 1-(4-chlorophenyl)-4-(4,5-dihydro-1H-imidazol-2-yl)-1H-pyrazole]
decrease of parasite load compared to untreated infected Vero cell cultures [1]: 4.5 fold | CC50 at 72 h [2]: 277 ± 15.8 µM | maximum inhibition of cysteine protease enzymatic activity [6]: 26% | viability of intracellular parasites in microtissue, luminescence intensity (ALU) [3]: 36,130 ± 5764 ALU | IC50 [4, 9]: < 10 µM | IC50 [4, 7]: 6.03 µM | IC90 [4, 8]: 26.1 ± 14.3 µM | IC50 ([4]; Vero cells infected with Dm28c-Luc, 72 h, read-out: Trypanocidal Activity Intracellular Amastigotes IC50): 6.09 ± 0.52 µM | Trypomastigotes SI [5]: 4.27 | IC50 [5]: 64.6 ± 1.56 µM | IC90 [5]: > 100 µM

Brc1ccc(-n2cc(C3=NCCN3)cn2)cc1 [Compound 3j, 1-(4-bromophenyl)-4-(4,5-dihydro-1H-imidazol-2-yl)-1H-pyrazole]
decrease of parasite load compared to untreated infected Vero cell cultures [1]: 1.9 fold | CC50 at 72 h [2]: 309 ± 34.3 µM | maximum inhibition of cysteine protease enzymatic activity [6]: 26% | viability of intracellular parasites in microtissue, luminescence intensity (ALU) [3]: 39,001 ± 9952 ALU | IC50 [4, 7]: 2.75 µM | IC90 [4, 8]: 9.67 ± 0.3 µM | Trypomastigotes SI [5]: 5.36 | IC50 [5]: 57.7 ± 3.14 µM | IC90 [5]: 95.3 ± 5.43 µM

Cc1nn(-c2ccc(Cl)c(Cl)c2)c(N)c1C1=NCCN1 [Compound 4c, 5-amino-1-(3,4-dichlorophenyl)-3-methyl-4-(4,5-dihydro-1H-imidazol-2-yl)-1H-pyrazole]
CC50 at 72 h [2]: 355 ± 17.7 µM | melting point: 221 to 224 °C | Intracellular Amastigotes SI [4]: 3.78 | IC50 [4, 9]: 93.8 ± 16.4 µM | IC50 [4, 7]: 93.3 µM | IC90 [4, 8]: > 100 µM | IC50 [5]: > 100 µM | IC90 [5]: > 100 µM

CC1CN=C(c2cnn(-c3cccc(Cl)c3)c2N)N1 (stereo not shown) [Compound 5a, 5-amino-1-(3-chlorophenyl)-4-(4-(5)-methyl-4,5-dihydro-1H-imidazol-2-yl)-1H-pyrazole]
CC50 at 72 h [2]: > 500 µM | melting point: 169 to 172 °C | IC50 [4, 9]: > 100 µM | IC50 [4, 7]: > 100 µM | IC90 [4, 8]: > 100 µM | IC50 [5]: > 100 µM | IC90 [5]: > 100 µM

CC1CN=C(c2cnn(-c3cc(Cl)cc(Cl)c3)c2N)N1 (stereo not shown) [Compound 5b, 5-amino-1-(3,5-dichlorophenyl)-4-(4-(5)-methyl-4,5-dihydro-1H-imidazol-2-yl)-1H-pyrazole]
CC50 at 72 h [2]: > 500 µM | melting point: 189 to 192 °C | Intracellular Amastigotes SI [4]: >15.17 | IC50 [4, 9]: 33 ± 8.84 µM | IC50 [4, 7]: 33.1 µM | IC90 [4, 8]: > 100 µM | IC50 [5]: > 100 µM | IC90 [5]: > 100 µM

CC1CN=C(c2cnn(-c3ccc(Cl)c(Cl)c3)c2N)N1 (stereo not shown) [Compound 5c, 5-amino-1-(3,4-dichlorophenyl)-4-(-4(5)-methyl-4,5-dihydro-1H-imidazol-2-yl)-1H-pyrazole]
CC50 at 72 h [2]: 343 ± 37 µM | melting point: 191 to 193 °C | IC50 [4, 9]: 34.3 ± 4.24 µM | IC50 [4, 7]: 34.7 µM | IC90 [4, 8]: > 100 µM | IC50 [5]: > 100 µM | IC90 [5]: > 100 µM

CC(C)C[C@H](NC(=O)[C@H]1O[C@@H]1C(=O)O)C(=O)NCCCCN=C(N)N [Compound E-64, transepoxysuccinyl-L-leucylamido-(4-guanidino) butane, reference compound]
inhibition of cysteine protease enzymatic activity ([6]; concentrations ≥ 11.11 µM): greater than 80%
